The results in this text go back to patent US9617289B2, “RSV antiviral compounds” (JANSSEN R&D IRELAND, priority 2012, dated 2017).

The assay deals with rgRSV224 virus. The assay is described as follows: Antiviral activity: inhibition of rgRSV224 (GFP-expressing RSV) replication in HeLa cells. It is filed as cell-based, respiratory syncytial virus. The note with it: human respiratory syncytial virus, HeLa, 72 h, read-out: pEC50, rgRSV224 (MOI=0.02) in HeLa cells, GFP expression three days post-virus exposure (converted). On the procedure:
Black 96-well clear-bottom microtiter plates (Corning, Amsterdam, The Netherlands) were filled in duplicate using a customized robot system with serial 4-fold dilutions of compound in a final volume of 50 μl culture medium [RPMI medium without phenol red, 10% FBS, 0.04% gentamycin (50 mg/ml) and 0.5% DMSO]. Then, 100 μl of a HeLa cell suspension (5×10^4 cells/ml) in culture medium was added to each well followed by the addition of 50 μl rgRSV224 (MOI=0.02) virus in culture medium using a multidrop dispenser (Thermo Scientific, Erembodegem, Belgium). rgRSV224 virus is an engineered virus that includes an additional GFP gene (Hallak et al, 2000) and was in-licensed from the NIH (Bethesda, Md., USA). Medium, virus- and mock-infected controls were included in each test. Cells were incubated at 37° C. in a 5% CO2 atmosphere. Three days post-virus exposure, viral replication was quantified by measuring GFP expression in the cells by a MSM laser microscope (Tibotec, Beerse, Belgium). The EC50 was defined as the 50% inhibitory concentration for GFP expression. In parallel, compounds were incubated for three days in a set of white 96-well microtitier plates (Corning) and the cytotoxicity of compounds in HeLa cells was determined by measuring the ATP content of the cells using the ATPlite kit (PerkinElmer, Zaventem, Belgium) according to the manufacturer's instructions. The CC50 was defined as the 50% concentration for cytotoxicity. SI is calculated as CC50/EC50.

The structures appear in SMILES notation. A value given as a limit tells only on which side of the number the result lay.

For `CS(=O)(=O)CCCn1c(CN2C(=O)C3(CCOCC3)c3ccncc32)nc2cc(Cl)ccc21` [Compound 38, 1′-((5-chloro-1-(3-(methylsulfonyl)propyl)-1H-benzo[d]-imidazol-2-yl)methyl)-2,3,5,6-tetrahydrospiro[pyran-4,3′-pyrrolo[2,3-c]pyridin]-2′(1′H)-one], the EC50 was 0.158 nM.
For `CC(C)(C)OC(=O)N1CCC2(CC1)C(=O)N(Cc1nc3cc(Cl)ccc3n1CCCS(C)(=O)=O)c1ccccc12` [Compound 39, tert-butyl 1-((5-chloro-1-(3-(methylsulfonyl)propyl)-1H-benzo[d]imidazol-2-yl)methyl)-2-oxospiro[indoline-3,4′-piperidine]-1′-carboxylate], the EC50 is 0.631 nM.
To `CS(=O)(=O)CCCn1c(CN2C(=O)C3(CCOCC3)c3ccccc32)nc2cc(Cl)ccc21` [Compound 40, 1-((5-chloro-1-(3-(methylsulfonyl)propyl)-1H-benzo[d]-imidazol-2-yl)methyl)-2′,3′,5′,6′-tetrahydrospiro[indoline-3,4′-pyran]-2-one] belongs 2.51 nM.
With `CS(=O)(=O)CCCn1c(CN2C(=O)C3(CCOCC3)c3cnccc32)nc2cc(Cl)ccc21` [Compound 41, 1-((5-chloro-1-(3-(methylsulfonyl)propyl)-1H-benzo[d]-imidazol-2-yl)methyl)-2,3,5,6-tetrahydrospiro[pyran-4,3′-pyrrolo[3,2-c]pyridin]-2′(1′H)-one], the EC50 was 45.7 nM.
In the case of `CC(=O)N1CCC2(CC1)C(=O)N(Cc1nc3cc(Cl)ccc3n1CCCS(C)(=O)=O)c1cnccc12` [Compound 42, 1-acetyl-1′-((5-chloro-1-(3-(methylsulfonyl)propyl)-1H-benzo[d]imidazol-2-yl)methyl)spiro[piperidine-4,3′-pyrrolo-[2,3-c]pyridin]-2′(1′H)-one], the EC50 is under 0.158 nM.
The value for `O=C(Oc1ccc(F)cc1)N1CC2(C1)C(=O)N(Cc1nc3cc(Cl)ccc3n1CCCC(F)(F)F)c1ccccc12` [Compound 43, 4-fluorophenyl 1′-((5-chloro-1-(4,4,4-trifluorobutyl)-1H-benzo[d]imidazol-2-yl)methyl)-2′-oxospiro[azetidine-3,3′-indoline]-1-carboxytale] was 0.251 nM.
As for `CC(C)(C)OC(=O)N1CC2(C1)C(=O)N(Cc1nc3cc(Cl)ccc3n1CCCC(F)(F)F)c1ccccc12` [Compound 44, tert-butyl 1′-((5-chloro-1-(4,4,4-trifluorobutyl)-1H-benzo[d]imidazol-2-yl)methyl)-2′-oxospiro[azetidine-3,3′-indoline]-1-carboxylate], the EC50 was 0.251 nM.
For the compound `CC(C)COC(=O)N1CC2(C1)C(=O)N(Cc1nc3cc(Cl)ccc3n1CCCC(F)(F)F)c1ccccc12` [Compound 45, isobutyl 1′-((5-chloro-1-(4,4,4-trifluorobutyl)-1H-benzo[d]-imidazol-2-yl)methyl)-2′-oxospiro[azetidine-3,3′-indoline]-1-carboxylate], the EC50 was 0.398 nM.
The value for `O=C1N(Cc2nc3cc(Cl)ccc3n2CCCC(F)(F)F)c2ccccc2C12CNC2` [Compound 46, 1′-((5-chloro-1-(4,4,4-trifluorobutyl)-1H-benzo[d]imidazol-2-yl)methyl)spiro[azetidine-3,3-indolin]-2′-one] was 0.631 nM; that for `O=C(OC1CCCC1)N1CCC2(CC1)C(=O)N(Cc1nc3cc(Cl)ccc3n1CCCC(F)(F)F)c1ccccc12` [Compound 47, Cyclopentyl 1-((5-chloro-1-(4,4,4-trifluorobutyl)-1H-benzo[d]imidazol-2-yl)methyl)-2-oxospiro[indoline-3,4′-piperidine]-1′-carboxylate] was 1.58 nM.
To `CC(C)(C)OC(=O)N1CCC2(CC1)C(=O)N(Cc1nc3cc(Cl)ccc3n1CCCC(F)(F)F)c1ccccc12` [Compound 48] belongs 2.51 nM; to `O=C1N(Cc2nc3cc(Cl)ccc3n2CCCC(F)(F)F)c2ccccc2C12CCNCC2` [Compound 49, 1-((5-chloro-1-(4,4,4-trifluorobutyl)-1H-benzo[d]imidazol-2-yl)methyl) spiro[indoline-3,4′-piperidin]-2-one], 5.01 nM.
The value for `O=C(OCc1ccccc1)N1CCC2(CC1)C(=O)N(Cc1nc3cc(Cl)ccc3n1CCCC(F)(F)F)c1ccccc12` [Compound 50, benzyl 1-((5-chloro-1-(4,4,4-trifluorobutyl)-1H-benzo[d]-imidazol-2-yl)methyl)-2-oxospiro[indoline-3,4′-piperidine]-1′-carboxylate] was 10 nM.
As for `O=C1N(Cc2nc3cc(Cl)ccc3n2CCCC(F)(F)F)c2ccccc2C12CCN(Cc1ccccc1)CC2` [Compound 51, 1′-benzyl-1-((5-chloro-1-(4,4,4-trifluorobutyl)-1H-benzo[d]-imidazol-2-yl)methyl)spiro[indoline-3,4′-piperidin]-2-one], the EC50 was 63.1 nM.
To `O=C1N(Cc2nc3cc(Cl)ccc3n2CCCC(F)(F)F)c2ccccc2C12CCOCC2` [Compound 52, 1-((5-chloro-1-(4,4,4-trifluorobutyl)-1H-benzo[d]imidazol-2-yl)methyl)-2′,3′,5′,6′-tetrahydrospiro[indoline-3,4′-pyran]-2-one] belongs 2.51 nM.
The value for `CC(C)(C)OC(=O)N1CCC2(CC1)C(=O)N(Cc1nc3cc(Cl)ccc3n1CCCC#N)c1cnccc12` [Compound 53, tert-butyl 1′-((5-chloro-1-(3-cyanopropyl)-1H-benzo[d]-imidazol-2-yl)methyl)-2′-oxo-1′,2′-dihydrospiro[piperidine-4,3′-pyrrolo[2,3-c]pyridine]-1-carboxylate] was under 0.158 nM.
To `CS(=O)(=O)CCCn1c(CN2C(=O)C3(CCCC3)c3ccncc32)cc2cc(Cl)ccc21` [Compound 54, 1′-({5-chloro-1-[3-(methylsulfonyl)propyl]-1H-indol-2-yl}methyl)spiro [cyclopentane-1,3′-pyrrolo[2,3-c]pyridin]-2′(1′H)-one] belongs 1.58 nM.
With `CS(=O)(=O)CCCn1c(CN2C(=O)C3(CCOCC3)c3cnccc32)cc2cc(Cl)ccc21` [Compound 57], the EC50 was 83.2 nM.
To `CC(C)(C)OC(=O)N1CC2(C1)C(=O)N(Cc1cc3cc(Cl)ccc3n1CCCC#N)c1ccccc12` [Compound 58, tert-butyl 1′-{[5-chloro-1-(3-cyanopropyl)-1H-indol-2-yl]-methyl}-2′-oxo-1′,2′-dihydro-1H-spiro[azetidine-3,3′-indole]-1-carboxylate] belongs under 0.2 nM.
`N#CCCCn1c(CN2C(=O)C3(CNC3)c3ccccc32)cc2cc(Cl)ccc21` [Compound 59, 4-{5-chloro-2-[(2′-oxospiro[azetidine-3,3′-indol]-1′(2′H )-yl)-methyl]-1H-indol-1-yl}butanenitrile]: the EC50 is 5.01 nM.
The value for `COC(=O)N1CC2(C1)C(=O)N(Cc1cc3cc(Cl)ccc3n1CCCC#N)c1ccccc12` [Compound 60, 1′-{[5-chloro-1-(3-cyanopropyl)-1H-indol-2-yl]methyl}-2′-oxo-1′,2′-dihydro-1H-spiro[azetidine-3,3′-indole]-1-carboxylate] was 0.251 nM; that for `N#CCCCn1c(CN2C(=O)C3(CN(S(=O)(=O)C4CC4)C3)c3ccccc32)cc2cc(Cl)ccc21` [Compound 61, 4-(5-chloro-2-{[1-(cyclopropylsulfonyl)-2′-oxospiro-[azetidine-3,3′-indol]-1′(2′H)-yl]methyl}-1H-indol-1-yl)-butanenitrile] was 0.398 nM.
